Laboratory results published in ChEMBL document CHEMBL1909281, “FDA-approved drug labeling for the study of drug-induced liver injury” (Drug Discov Today, 2011).

The molecules below were run on Hepatotoxicity. Details: not given.
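Note: severity score taken from the FDA LTKB benchmark dataset, subset of drugs classed as lower DILI concern.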

Row | SMILES | LTKB_BD DILI severity score
1 | CCOC(=O)[C@H](CCc1ccccc1)N[C@@H](C)C(=O)N1CCC[C@H]1C(=O)O | 4
2 | Nc1nc2c(ncn2COCCO)c(=O)[nH]1 [ACYCLOVIR] | 5
3 | Oc1ncnc2[nH]ncc12 [ALLOPURINOL] | 3
4 | CN(C)c1nc(N(C)C)nc(N(C)C)n1 [ALTRETAMINE] | 2
5 | NC12CC3CC(CC(C3)C1)C2 [AMANTADINE] | 3
6 | CC1(C)S[C@@H]2[C@H](NC(=O)[C@H](N)c3ccc(O)cc3)C(=O)N2[C@H]1C(=O)O [AMOXICILLIN] | 3
7 | CC(C)NCC(O)COc1ccc(COCCOC(C)C)cc1 (stereo not given) [BISOPROLOL] | 3
8 | CC(NC(C)(C)C)C(=O)c1cccc(Cl)c1 (stereo not given) [BUPROPION] | 5
9 | O=C1CC2(CCCC2)CC(=O)N1CCCCN1CCN(c2ncccn2)CC1 [BUSPIRONE] | 3
10 | C[C@H](CS)C(=O)N1CCC[C@H]1C(=O)O [CAPTOPRIL] | 6
11 | O=NN(CCCl)C(=O)NCCCl [CARMUSTINE] | 3
12 | CCN(CC)CCCC(C)Nc1ccnc2cc(Cl)ccc12 (stereo not given) [CHLOROQUINE] | 3
13 | CN(C)CCCN1c2ccccc2Sc2ccc(Cl)cc21 [CHLORPROMAZINE] | 2
14 | CCCNC(=O)NS(=O)(=O)c1ccc(Cl)cc1 [CHLORPROPAMIDE] | 2
15 | CCOC(=O)C(C)(C)Oc1ccc(Cl)cc1 [CLOFIBRATE] | 3
16 | Clc1ccccc1C(c1ccccc1)(c1ccccc1)n1ccnc1 [CLOTRIMAZOLE] | 3
17 | CN1CCN(C2=Nc3cc(Cl)ccc3Nc3ccccc32)CC1 [CLOZAPINE] | 2
18 | COc1cc2c(c(OC)c1OC)-c1ccc(OC)c(=O)cc1[C@@H](NC(C)=O)CC2 [COLCHICINE] | 6
19 | O=C([O-])c1cc(=O)c2c(OCC(O)COc3cccc4oc(C(=O)[O-])cc(=O)c34)cccc2o1.[Na+].[Na+] [CROMOLYN SODIUM] | 3
20 | C[C@@H]1C[C@H]2[C@@H]3CCC4=CC(=O)C=C[C@]4(C)[C@@]3(F)[C@@H](O)C[C@]2(C)[C@@]1(O)C(=O)CO [DEXAMETHASONE] | 3
21 | C[C@H]1c2cccc(O)c2C(=O)C2=C(O)[C@]3(O)C(=O)C(C(N)=O)=C(O)[C@@H](N(C)C)[C@@H]3[C@@H](O)[C@@H]21.O [DOXYCYCLINE] | 3
22 | C[C@]12CC[C@@H]3c4ccc(O)cc4CC[C@H]3[C@@H]1CC[C@@H]2O [ESTRADIOL] | 2
23 | C=C(CC)C(=O)c1ccc(OCC(=O)O)c(Cl)c1Cl [ETHACRYNIC ACID] | 5
24 | CC(C)OC(=O)C(C)(C)Oc1ccc(C(=O)c2ccc(Cl)cc2)cc1 [FENOFIBRATE] | 3
25 | CNCCC(Oc1ccc(C(F)(F)F)cc1)c1ccccc1 (stereo not given) [FLUOXETINE] | 3
26 | CC(C(=O)O)c1ccc(-c2ccccc2)c(F)c1 (stereo not given) [FLURBIPROFEN] | 3
27 | Nc1nc(O)c2ncn(COC(CO)CO)c2n1 [GANCICLOVIR] | 7
28 | Cc1ccc(C)c(OCCCC(C)(C)C(=O)O)c1 [GEMFIBROZIL] | 3

Same assay, conditions: Liver

Row | SMILES | LTKB_BD DILI severity score
29 | CC(C)(C)NC(=O)[C@@H]1C[C@@H]2CCCC[C@@H]2CN1C[C@@H](O)[C@H](Cc1ccccc1)NC(=O)[C@H](CC(N)=O)NC(=O)c1ccc2ccccc2n1 | 3
30 | Cn1cnc([N+](=O)[O-])c1Sc1ncnc2nc[nH]c12 [AZATHIOPRINE] | 3
31 | CN/C(=N/CCSCc1nc[nH]c1C)NC#N [CIMETIDINE] | 2
32 | Clc1cccc(Cl)c1N=C1NCCN1 [CLONIDINE] | 3
33 | O=P1(N(CCCl)CCCl)NCCCO1 (stereo not given) [CYCLOPHOSPHAMIDE ANHYDROUS] | 5
34 | CNCCCN1c2ccccc2CCc2ccccc21 [DESIPRAMINE] | 3
35 | NC(N)=Nc1nc(CSCCC(N)=NS(N)(=O)=O)cs1 [FAMOTIDINE] | 3
